This is an account of results in ChEMBL document CHEMBL4196194, “De Novo Design of α-Helical Lipopeptides Targeting Viral Fusion Proteins: A Promising Strategy for Relatively Broad-Spectrum Antiviral Drug Discovery” (J Med Chem, 2018).

What all share (format): functional, organism-based
In assay [1] the test system is Influenza A virus. The assay is described as follows: Antiviral activity against oseltamivir-resistant Influenza A virus (H1N1) TJ/15.
Assay [2] concerns Influenza A virus. The assay is described as follows: Antiviral activity against oseltamivir-resistant Influenza A virus (H1N1) LN/1109.
In assay [3] the test system is Influenza A virus. The assay is described as follows: Antiviral activity against oseltamivir-resistant Influenza A virus (H1N1) TJ/15 up to 100 uM.

The term EC50 denotes the concentration needed to bring the measured effect to its halfway point. Read a high EC50 as a need for much substance.

Calls of active or inactive are those of the source. No cut-off for these calls is given here. Where a SMILES comes first, the peptide text is derived from it. [ ]: non-standard residue; d: D form. The star is where a group is joined. Palmitoyl = CCCCCCCCCCCCCCCC(=O)*; βAla = NCCC(=O)O

Consider `CCCCCCCCCCCCCCCC(=O)NCCCC[C@H](NC(=O)CCNC(=O)[C@H](CCCCN)NC(=O)[C@H](CCCCN)NC(=O)[C@H](CCC(N)=O)NC(=O)[C@@H](NC(=O)[C@H](CCC(=O)O)NC(=O)[C@H](CCC(=O)O)NC(=O)[C@@H](NC(=O)[C@H](CCCCN)NC(=O)[C@H](CCCCN)NC(=O)[C@H](CCC(N)=O)NC(=O)[C@@H](NC(=O)[C@H](CCC(=O)O)NC(=O)[C@H](CCC(=O)O)NC(=O)[C@@H](NC(=O)[C@H](CCCCN)NC(=O)[C@H](CCCCN)NC(=O)[C@H](CCC(N)=O)NC(=O)[C@@H](NC(=O)[C@H](CCC(=O)O)NC(=O)[C@H](CCC(=O)O)NC(=O)[C@@H](NC(=O)[C@H](CCCCN)NC(=O)[C@H](CCCCN)NC(=O)[C@H](CCC(N)=O)NC(=O)[C@@H](NC(=O)[C@H](CCC(=O)O)NC(=O)[C@H](CCC(=O)O)NC(=O)[C@@H](NC(=O)[C@H](CCCCN)NC(=O)[C@H](CCCCN)NC(=O)[C@H](CCC(N)=O)NC(=O)[C@@H](NC(=O)[C@H](CCC(=O)O)NC(=O)[C@H](CCC(=O)O)NC(=O)[C@@H](NC(C)=O)[C@@H](C)CC)[C@@H](C)CC)[C@@H](C)CC)[C@@H](C)CC)[C@@H](C)CC)[C@@H](C)CC)[C@@H](C)CC)[C@@H](C)CC)[C@@H](C)CC)[C@@H](C)CC)C(N)=O` (Ac-IEEIQKKIEEIQKKIEEIQKKIEEIQKKIEEIQKK[βAla]K(Palmitoyl)-NH2), for which the figures for the EC50 with Influenza A virus [1] and with Influenza A virus [2] were 3.03 µM and 4.36 µM, respectively.
Turning to `CCOC(=O)C1=C[C@@H](OC(CC)CC)[C@H](NC(C)=O)[C@@H](N)C1` [OSELTAMIVIR], in the assay with Influenza A virus [3], the inhibition entry is “inactive”. A half-maximal response with Influenza A virus [2] (EC50) required 21.7 µM.
